Laboratory results from patent US10792365B2, “Peptide derivative and use thereof” (Toray Industries, Inc., priority 2016, dated 2020).
Counter-ions that a name gives are not always drawn.

Legend:
[1] = tested on: L1210 cells; experiment: In vitro cytotoxicity of the peptide derivative (I), MTS method, L1210 cells; assay type: cell-based, mouse; details: Mus musculus
Excerpt: (§1) The cytotoxicity of the peptide derivative (I) or a pharmaceutically acceptable salt thereof, or the conjugate including the peptide derivative (I) or a pharmaceutically acceptable salt thereof can be evaluated with an in vitro study. Examples of the in vitro studies include the trypan blue dye exclusion method, the lactate dehydrogenase (LDH) activity assay, [^3H]thymidine incorporation method, or propidium iodide nuclear stain that each measures the number of dead cells or surviving cells post treated with the compound; a method using dyes such as MTT, MTS, and WST (Current Protocol in Toxicology, (2000), 2.6.1-2.6.27); or a method in which the amount of ATP is measured using CellTiter-Glow (Promega Corporation) and the like, and preferably include the method in which the number of surviving cells post treated with the compound is measured by using the MTS method to determine values of the cytotoxicity at that time from 50% effect-concentration (EC50). Furthermore, in the evaluation of the cytotoxicity of the conjugate including the peptide derivative (I) or a pharmaceutically acceptable salt thereof, preferred method is the one that for a certain time, cells are treated with a medium containing the compound, the cells are then transferred to a medium not containing the compound, and the number of surviving cells are measured after cultivation for additional certain time (Bioconjugate Chemistry., 2014; 25: pp. 560-568). For the in vitro studies, human ovarian cancer cell SKOV-3 cells, human alveolar basement epithelial gland cancer cell A549 cells, mouse lymphocytic leukocyte L1210 cells and the like are used.

[2] = tested on: A549 cells; experiment: In vitro cytotoxicity of the peptide derivative (I), MTS method, A549 cells; assay type: cell-based, human; details: Homo sapiens
Excerpt: as §1

[3] = tested on: SKOV-3 cells; experiment: In vitro cytotoxicity of the peptide derivative (I), MTS method, SKOV-3 cells; assay type: cell-based, human; details: Homo sapiens, SK-OV-3
Excerpt: as §1

[4] = Parallel Artificial Membrane Permeation Assay (PAMPA), Pre-coated PAMPA Plate System (Corning)
Method: Reference Example 14, the Compound of Reference Example 16, and the Compound of Comparative Example was Evaluated by Using Pre-Coated PAMPA PlateSystem (Corning)
A frozen-stored, Pre-coated PAMPA Plate System was allowed to stand at room temperature for thirty minutes or more. Subsequently, 320 μL of the standard solution was added to a Donor side plate of Pre-coated PAMPA Plate System, and 200 μL of the PBS containing 20% of methanol was added to an Acceptor side plate. Both of the plates were set for the system, and the plates allowed to stand at room temperature for five hours. The reaction liquid in each well of the Donor side and Acceptor side plates was subjected to LC/MS analysis (hereinafter, LC/MS-3), and the concentration of the compounds in each well calculated.
Using the obtained concentration of the compounds in the reaction liquid in each well, the membrane permeability coefficients (Pe) (cm/s) were calculated by the following formula: Cequilibrium=[…] Pe=[−ln(1−CA/Cequilibrium)]/S×(1/VD+1/VA)×t Cequilibrium: Equilibrium concentration of the wells in the Donor side and Acceptor side plates CD: Concentration after five hours of the wells in the Donor side plate (mmol/L) VD: Volume of the standard solution added to the wells in the Donor side plate (0.32 mL) CA: Concentration after five hours of the wells in the Acceptor side plate (mmol/L) VA: Volume of the PBS containing 20% of methanol added to the wells in the Acceptor side plate (0.2 mL) S: Surface of the membrane (0.3 cm^2) t: Standing time 18,000 s (=5 hrs).

## CC[C@H](C)[C@@H]([C@@H](CC(=O)N1CCC[C@H]1[C@H](OC)[C@@H](C)C(=O)N[C@@H](Cc1ccccc1)c1nc(C(=O)N(C)CCNC)cs1)OC)N(C)C(=O)[C@@H](NC(=O)[C@H](C(C)C)N(C)C)C(C)C [Example 6, 2-((S)-1-((2R,3R)-3-((S)-1-((3R,4S,5S)-4-((S)-2-((S)-2-(dimethylamino)-3-methylbutanamido)-N,3-dimethylbutanamido)-3-methoxy-5-methylheptanoyl)pyrrolidin-2-yl)-3-methoxy-2-methylpropanamido)-2-phenylethyl)-N-methyl-N-(2-(methylamine)ethyl)thiazole-4-carboxamide dihydrochloride]
[1]
  EC50: 17.2 nM
[2]
  EC50: 1.94 nM
[3]
  EC50: 0.22 nM

## CC[C@H](C)[C@@H]([C@@H](CC(=O)N1CCC[C@H]1[C@H](OC)[C@@H](C)C(=O)N[C@@H](Cc1ccccc1)c1nc(C(=O)NCCc2ccc(N)cc2)cs1)OC)N(C)C(=O)[C@@H](NC(=O)[C@H](C(C)C)N(C)C)C(C)C [Example 10]
[1]
  EC50: 4.05 nM
[2]
  EC50: 1.08 nM
[4]
  Papp at 5 h, 200 μmol/L: 0.3 ×10⁻⁶ cm/s
[3]
  EC50: 0.27 nM

## CC[C@H](C)[C@@H]([C@@H](CC(=O)N1CCC[C@H]1[C@H](OC)[C@@H](C)C(=O)N[C@@H](Cc1ccccc1)c1nc(C(=O)OCCO)cs1)OC)N(C)C(=O)[C@@H](NC(=O)[C@H](C(C)C)N(C)C)C(C)C [Example 8, 2-hydroxyethyl 2-((S)-1-((2R,3R)-3-((S)-1-((3R,4S,5S)-4-((S)-2-((S)-2-(dimethylamino)-3-methylbutanamido)-N,3-dimethylbutanamido)-3-methoxy-5-methylheptanoyl)pyrrolidin-2-yl)-3-methoxy-2-methylpropanamido)-2-phenylethyl)thiazole-4-carboxylate]
[1]
  EC50: 4.74 nM
[2]
  EC50: 1.75 nM
[4]
  Papp at 5 h, 200 μmol/L: 0.04 ×10⁻⁶ cm/s
[3]
  EC50: 0.09 nM

## CC[C@H](C)[C@@H]([C@@H](CC(=O)N1CCC[C@H]1[C@H](OC)[C@@H](C)C(=O)N[C@@H](Cc1ccccc1)c1nc(C(=O)NCCO)cs1)OC)N(C)C(=O)[C@@H](NC(=O)[C@H](C(C)C)N(C)C)C(C)C [Example 7]
[1]
  EC50: 28.4 nM
[2]
  EC50: 1.74 nM
[4]
  Papp at 5 h, 200 μmol/L: 0.02 ×10⁻⁶ cm/s
[3]
  EC50: 4.67 nM

## CC[C@H](C)[C@@H]([C@@H](CC(=O)N1CCC[C@H]1[C@H](OC)[C@@H](C)C(=O)N[C@@H](Cc1ccccc1)c1nc(C(=O)N(C)CCO)cs1)OC)N(C)C(=O)[C@@H](NC(=O)[C@H](C(C)C)N(C)C)C(C)C [Example 9]
[1]
  EC50: 8.52 nM
[2]
  EC50: 1.64 nM
[4]
  Papp at 5 h, 200 μmol/L: 0.08 ×10⁻⁶ cm/s
[3]
  EC50: 1.5 nM

## CC[C@H](C)[C@@H]([C@@H](CC(=O)N1CCC[C@H]1[C@H](OC)[C@@H](C)C(=O)N[C@@H](Cc1ccccc1)c1nc(C(=O)O)cs1)OC)N(C)C(=O)[C@@H](NC(=O)[C@H](C(C)C)N(C)C)C(C)C [Reference Example 1, 2-((S)-1-((2R,3R)-3-((S)-1-((3R,4S,5S)-4-((S)-2-((S)-2-(dimethylamino)-3-methylbutanamido)-N,3-dimethylbutanamido)-3-methoxy-5-methylheptanoyl)pyrrolidin-2-yl)-3-methoxy-2-methylpropanamido)-2-phenylethyl)thiazole-4-carboxylic acid, reference compound]
[1]
  EC50: > 50 nM
[2]
  EC50: > 10 nM
[4]; 200 μmol/L in PBS containing 20% of methanol, room temperature, five hours, N.D. = Acceptor side concentration less than lower limit of determinate quantity
  Membrane Permeability Coefficient: 0.01 10^−6 cm/s
[3]
  EC50: > 10 nM

## CC[C@H](C)[C@@H]([C@@H](CC(=O)N1CCC[C@H]1[C@H](OC)[C@@H](C)C(=O)N[C@@H](Cc1ccccc1)c1nc(C(=O)N(C)CCN)cs1)OC)N(C)C(=O)[C@@H](NC(=O)[C@H](C(C)C)N(C)C)C(C)C [Example 5, N-(2-aminoethyl)-2-((S)-1-((2R,3R)-3-((S)-1-((3R,4S,5S)-4-((S)-2-((S)-2-(dimethylamino)-3-methylbutanamido)-N,3-dimethylbutanamido)-3-methoxy-5-methylheptanoyl)pyrrolidin-2-yl)-3-methoxy-2-methylpropanamido)-2-phenylethyl)-N-methylthiazole-4-carboxamide dihydro chloride]
[1]
  EC50: 11.7 nM
[2]
  EC50: 0.81 nM
[4]
  Papp at 5 h, 200 μmol/L: 0.01 ×10⁻⁶ cm/s
[3]
  EC50: 0.56 nM

## CC[C@H](C)[C@@H]([C@@H](CC(=O)N1CCC[C@H]1[C@H](OC)[C@@H](C)C(=O)N[C@@H](Cc1ccccc1)c1nc(C(=O)OCCS)cs1)OC)N(C)C(=O)[C@@H](NC(=O)[C@H](C(C)C)N(C)C)C(C)C [Example 2, 2-mercaptoethyl 2-((S)-1-((2R,3R)-3-((S)-1-((3R,4S,5S)-4-((S)-2-((S)-2-(dimethylamino)-3-methylbutanamido)-N,3-dimethylbutanamido)-3-methoxy-5-methylheptanoyl)pyrrolidin-2-yl)-3-methoxy-2-methylpropanamido)-2-phenylethyl)thiazole-4-carboxylate]
[1]
  EC50: 14.2 nM
[2]
  EC50: 6.88 nM
[4]
  Papp at 5 h, 200 μmol/L: 0.005 ×10⁻⁶ cm/s
[3]
  EC50: 0.13 nM

## CC[C@H](C)[C@@H]([C@@H](CC(=O)N1CCC[C@H]1[C@H](OC)[C@@H](C)C(=O)N[C@@H](Cc1ccccc1)c1nc(C(=O)OCCN)cs1)OC)N(C)C(=O)[C@@H](NC(=O)[C@H](C(C)C)N(C)C)C(C)C [Example 4]
[1]
  EC50: 28.7 nM
[2]
  EC50: 0.83 nM
[4]
  Papp at 5 h, 200 μmol/L: 0.01 ×10⁻⁶ cm/s
[3]
  EC50: 0.85 nM

## CC[C@H](C)[C@@H]([C@@H](CC(=O)N1CCC[C@H]1[C@H](OC)[C@@H](C)C(=O)N[C@@H](Cc1ccccc1)c1nc(C(=O)NCCN)cs1)OC)N(C)C(=O)[C@@H](NC(=O)[C@H](C(C)C)N(C)C)C(C)C [Reference Example 12, N-(2-aminoethyl)-2-((S)-1-(((2S,3R)-3-((S)-1-((3R,4S,5S)-4-((S)-2-((S)-2-(dimethylamino)-3-methylbutanamido)-N, 3-dimethylbutanamido)-3-methoxy-5-methylheptanoyl)pyrrolidin-2-yl)-3-methoxy-2-methylpropanamido)-2-phenylethyl)thiazole-4-carboxamidedihydrochloride, reference compound]
[1]
  EC50: > 50 nM
[2]
  EC50: > 10 nM
[4]
  Papp at 5 h, 200 μmol/L: 0.01 ×10⁻⁶ cm/s
[3]
  EC50: > 10 nM

## CC[C@H](C)[C@@H]([C@@H](CC(=O)N1CCC[C@H]1[C@H](OC)[C@@H](C)C(=O)N[C@@H](Cc1ccccc1)c1nc(C(=O)NCCS)cs1)OC)N(C)C(=O)[C@@H](NC(=O)[C@H](C(C)C)N(C)C)C(C)C [Example 1]
[1]
  EC50: 31.4 nM
[2]
  EC50: 1.93 nM
[4]
  Papp at 5 h, 200 μmol/L: 1.15 ×10⁻⁶ cm/s
[3]
  EC50: 0.44 nM

## CC[C@H](C)[C@@H]([C@@H](CC(=O)N1CCC[C@H]1[C@H](OC)[C@@H](C)C(=O)N[C@@H](Cc1ccccc1)c1nc(C(=O)NCCc2ccc(O)cc2)cs1)OC)N(C)C(=O)[C@@H](NC(=O)[C@H](C(C)C)N(C)C)C(C)C [Example 11, 2-((S)-1-((2R,3R)-3-((S)-1-((3R,4S,5S)-4-((S)-2-((S)-2-(dimethylamino)-3-methylbutanamido)-N,3-dimethylbutanamido)-3-methoxy-5-methylheptanoyl)pyrrolidin-2-yl)-3-methoxy-2-methylpropanamido)-2-phenylethyl)-N-(4-hydroxyphenethyl)thiazole-4-carboxamide]
[1]
  EC50: 5.61 nM
[2]
  EC50: 1.31 nM
[4]
  Papp at 5 h, 200 μmol/L: 0.36 ×10⁻⁶ cm/s
[3]
  EC50: 0.37 nM

## CC[C@H](C)[C@@H]([C@@H](CC(=O)N1CCC[C@H]1[C@H](OC)[C@@H](C)C(=O)N[C@@H](Cc1ccccc1)c1nc(C(=O)NCCNC(=O)CCS)cs1)OC)N(C)C(=O)[C@@H](NC(=O)[C@H](C(C)C)N(C)C)C(C)C [Reference Example 16, reference compound]
[1]
  EC50: > 50 nM
[2]
  EC50: > 10 nM
[3]
  EC50: > 10 nM
